Source: patent US20040102431A1, “Substituted amino-aza-cycloalkanes useful against malaria” (priority 2000, published 2004)

The molecules below were run against plasmepsin II (Plasmodium falciparum, UniProt P46925) (assay: biochemical). Details: not given.
Sequence of plasmepsin II (P46925 125-453): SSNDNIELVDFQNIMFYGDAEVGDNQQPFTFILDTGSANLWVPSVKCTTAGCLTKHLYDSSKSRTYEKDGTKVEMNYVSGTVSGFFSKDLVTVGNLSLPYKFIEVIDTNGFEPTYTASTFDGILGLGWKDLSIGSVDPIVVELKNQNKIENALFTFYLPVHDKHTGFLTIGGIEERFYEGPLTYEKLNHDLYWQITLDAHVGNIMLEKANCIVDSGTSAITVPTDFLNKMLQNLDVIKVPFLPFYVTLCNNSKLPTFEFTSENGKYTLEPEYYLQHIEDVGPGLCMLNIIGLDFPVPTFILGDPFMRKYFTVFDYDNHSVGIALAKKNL
Molecule `CCCCCc1ccc(C(=O)N(CCCc2ccccc2)C2CCN(Cc3ccccc3)CC2)cc1` [Example 2] has an IC50 of 1500 nM.

Same assay, conditions: Additional Examples table; FRET, pH 5, 37° C., 40 min, substrate 1 μM; read-out: IC50 (nM) on plasmepsin II
Work on `CCCCCc1ccc(C(=O)N(Cc2ccc(OCc3ccccc3)cc2)C2CCCN(Cc3ccccc3)C2)cc1` (racemic) [Example 105, (rac.)-N-(4-Benzyloxybenzyl)-N-(1-benzylpiperidin-3-yl)-4-pentyl-benzamide] yielded an IC50 of 458 nM. Molecule `CCCCCc1ccc(C(=O)N(Cc2ccc(-c3ccc(OC)c(OC)c3)cc2)C2CCN(CC3=CCCCC3)CC2)cc1` [Example 38, N-(1-Cyclohex-1-enylmethyl-piperidin-4-yl)-N-(3′,4′-dimethoxybiphenyl-4-ylmethyl)-4-pentylbenzamide] has an IC50 of 19 nM.

Same assay, conditions: […]; FRET, pH 5, 37° C., 40 min, substrate 1 μM; read-out: IC50 (nM) on plasmepsin II
Work on `CCCCCc1ccc(CN(Cc2ccc(-c3ccccc3)cc2)C2CCCN(Cc3ccccc3)CC2)cc1` (racemic) [Example 34] yielded an IC50 of 1970 nM. For `CCCCCc1ccc(C(=O)N(Cc2ccc(-c3ccccc3)cc2)C2CCCN(Cc3ccccc3)CC2)cc1` (racemic) [Example 35], the IC50 was 1700 nM. With `CCCCCc1ccc(C(=O)N(Cc2ccc(OCc3ccccc3)cc2)C2CCN(Cc3ccccc3)CC2)cc1` [Example 1] the IC50 was 70 nM. Molecule `CCCCOc1ccc(C(=O)N(Cc2ccc(OCc3ccccc3)cc2)C2CCN(Cc3ccccc3)CC2)cc1` [Example 3] has an IC50 of 1700 nM. In the case of `CCCCCCCCCCCC(=O)N(Cc1ccc(OCc2ccccc2)cc1)C1CCN(Cc2ccccc2)CC1` [Example 6], the IC50 is reported as 1800 nM. `CCCCCc1ccc(C(=O)N(Cc2ccc(Oc3ccccc3)cc2)C2CCN(Cc3ccccc3)CC2)cc1` [Example 7] was tested, and the IC50 was 462 nM. In the case of `CCCCCCCCCCCC(=O)N(Cc1ccc(Oc2ccccc2)cc1)C1CCN(Cc2ccccc2)CC1` [Example 9], the IC50 is reported as 1700 nM. In the case of `CCCCCc1ccc(C(=O)N(Cc2ccc(OCc3ccccc3)c(OCc3ccccc3)c2)C2CCN(Cc3ccccc3)CC2)cc1` [Example 10], the IC50 is reported as 1200 nM. In the case of `CCCCOc1ccc(C(=O)N(Cc2ccc(OCc3ccccc3)c(OCc3ccccc3)c2)C2CCN(Cc3ccccc3)CC2)cc1` [Example 11], the IC50 is reported as 3200 nM. `CCCCCCCCCCCC(=O)N(Cc1ccc(OCc2ccccc2)c(OCc2ccccc2)c1)C1CCN(Cc2ccccc2)CC1` [Example 13] gave an IC50 of 2400 nM. `CCCCCc1ccc(C(=O)N(Cc2ccc(-c3ccccc3)cc2)C2CCN(Cc3ccccc3)CC2)cc1` [Example 14] was tested, and the IC50 was 84 nM. In the case of `CCCCOc1ccc(C(=O)N(Cc2ccc(-c3ccccc3)cc2)C2CCN(Cc3ccccc3)CC2)cc1` [Example 15], the IC50 is reported as 1300 nM. `CCCCCCCCCCCC(=O)N(Cc1ccc(-c2ccccc2)cc1)C1CCN(Cc2ccccc2)CC1` [Example 16] gave an IC50 of 1300 nM. For `CCCCCc1ccc(C(=O)N(Cc2ccc(C(F)(F)F)cc2)C2CCN(Cc3ccccc3)CC2)cc1` [Example 18], the IC50 was 148 nM. For `CCCCCc1ccc(C(=O)N(Cc2ccc(OCc3ccccc3)c(OC)c2)C2CCN(Cc3ccccc3)CC2)cc1` [Example 22], the IC50 was 793 nM. Work on `CCCCCc1ccc(C(=O)N(Cc2ccc(CCCC)cc2)C2CCN(Cc3ccccc3)CC2)cc1` [Example 24] yielded an IC50 of 427 nM. With `CCCCCc1ccc(C(=O)N(Cc2ccc(OCCCC)cc2)C2CCN(Cc3ccccc3)CC2)cc1` [Example 25] the IC50 was 220 nM. Molecule `CCCCCc1ccc(CN(C(=O)c2ccc(CCCCC)cc2)C2CCN(Cc3ccccc3)CC2)cc1` [Example 26] has an IC50 of 497 nM. Molecule `CCCCCc1ccc(CN(Cc2ccc(C(F)(F)F)cc2)C2CCN(Cc3ccccc3)CC2)cc1` [Example 30] has an IC50 of 695 nM. `CCCCCc1ccc(CN(Cc2ccc(-c3ccccc3)cc2)C2CCN(Cc3ccccc3)CC2)cc1` [Example 31] was tested, and the IC50 was 210 nM. Work on `CCCCCc1ccc(C(=O)N(Cc2ccc(-c3ccc(C#N)cc3)cc2)C2CCN(Cc3ccoc3)CC2)cc1` [Example 32] yielded an IC50 of 18 nM. In the case of `CCCCCc1ccc(CN(Cc2ccc(-c3ccc(OCCO)cc3)cc2)C2CCN(Cc3ccccc3)CC2)cc1` [Example 33], the IC50 is reported as 96 nM. `CCCCCc1ccc(C(=O)N(Cc2ccc(-c3ccccc3)cc2)[C@H]2CCN(Cc3ccccc3)C2)cc1` [Example 36] gave an IC50 of 164 nM.
